Laboratory results published in ChEMBL document CHEMBL1144126, “A new insecticidal pyranocyclohexenedione from kunzea ericifolia” (1999).

Tested on: Phaedon cochleariae
Experiment: Insecticidal activity against mustard beetles at 10 ug after 24 to 48 hrs
Assay type: functional

`CC(C)C[C@@H]1C2=C(O[C@@H](C3=C(O)C(C)(C)C(=O)C(C)(C)C3=O)[C@H]1C(C)C)C(C)(C)C(=O)C(C)(C)C2=O` [ERICIFOLIONE] was tested. Which Activity did it give?
Its Activity is 97%.
